Mortality, T/C and Survivors data for one molecule are collected here from ChEMBL document CHEMBL1122784, “Antitumor imidazotetrazines. 1. Synthesis and chemistry of 8-carbamoyl-3-(2-chloroethyl)imidazo[5,1-d]-1,2,3,5-tetrazin-4(3 H)-one , a novel broad-spectrum antitumor agent” (J Med Chem, 1984).

Format in all cases: functional
Common to all, as to conditions: route intraperitoneal

The subject of test [1] is Mus musculus. The test can be described thus: Compound was tested for mortality in L1210 leukemia implanted BDF1 mice on day 0 after ip administration of 5 mg/kg/day on day 1-5 out of 5 mice.
The subject of test [2] is Mus musculus. Briefly: Compound was evaluated for %T/C in L1210 leukemia implanted BDF1 mice on day 0 after ip administration of 6.25 mg/kg/day on day 1-9.
For test [3], the system named is Mus musculus. The test can be described thus: Compound was evaluated for number of survivors in L1210 leukemia implanted BDF1 mice on day 0 after ip administration of 40 mg/kg/day on day 60 out of 5 mice.
The test system of test [4] is Mus musculus. The test can be described thus: Compound was tested for mortality in L1210 leukemia implanted BDF1 mice on day 0 after ip administration of 50 mg/kg/day on day 1-9 out of 6 mice.

For `NC(=O)c1ncn2c(=O)n(CCCl)nnc12` [MITOZOLOMIDE], the Mortality in test [1] and in test [4] was 0 in each case. The same molecule yielded a T/C in test [2] of 184%. In test [3], this molecule yielded a Survivors of 5.
